Data taken from patent publication US8466197B2, “Thiocarbonates as anti-inflammatory and antioxidant compounds useful for treating metabolic disorders” (Genmedica Therapeutics SL, priority 2010, dated 2013).

Assays:
[1] = Pharmacokinetic study: diflunisal levels in plasma after oral administration in mice; type: in vivo; conditions: 0.05 mmol/kg
Procedure: Diflunisal is detected in plasma of mice orally dosed with the compound described in Example 5 or the compound described in Example 8 (0.05 mmol/kg) (table 3).
Male cd-1 mice weighing 25-30 g are purchased from Charles River Laboratories Spain. The animals are housed in animal quarters at 22° C. with a 12-h light/12-h dark cycle and fed ad libitum. O/N fasted animals are dosed at […] with 0.05 mmol/kg of the indicated compound. […] Plasma was separated after centrifugation of blood and kept at −20° C. until metabolites determination.

[2] = In vitro cleavage studies: incubation with human liver S9 fraction, release of the NSAID; type: in vitro ADME; conditions: after 1 h of incubation
Procedure: Table 1 and 2 summarize in vitro data showing that thiocarbonate compounds are hydrolyzed in the presence of human liver S9 fraction and release the NSAID component, Diflunisal (Table 1) or salicylate (Table 2).
The compounds are incubated with human liver S9 fraction to study its metabolic stability and to profile and identify the forming metabolites. The basic incubation mixture of 500 μl in volume consisted of the following components: 1.5 mg of protein per ml, substrate in DMSO, 1 mM NADPH, 1 mM UDPGA, 1 mM PAPS and 1 mM GSH. The substrate concentration used was 2 μM. The final amount of DMSO in the incubation was 1% (v/v). Each reaction mixture was preincubated for 2 minutes at +37° C. The reaction was started by addition of cofactors. After an incubation of 60 min, a 100 μl sample was collected and the reaction was terminated by adding an equal volume of ice-cold acetonitrile. Samples were subsequently cooled in an ice bath for 15 minutes and analyzed. […] The samples are analyzed by HPLC/TOF-MS to monitor both the disappearance of the parent compound and formation of metabolites. […] In addition to ion source conditions optimised to produce molecular ions with high abundance, the samples from last time point (60 min) are analysed also using another parameters (higher aperture voltage) to generate high-resolution in-source fragment ion data. […]

db/db mice = assay: Reduction of fasting glycemia in db/db mice; type: in vivo; conditions: db/db mice treated for two weeks with a daily dose, versus vehicle; t-test p less than 0.01 (FIG. 1)
Procedure: 5-weeks old male mice C57BL/Ks bearing the db/db mutation (The Jackson Laboratories) and 7-weeks old male mice C57BL/6 bearing the ob/ob mutation are purchased from Charles River Laboratories Spain (Sant Cugat del Vallès, Spain) are treated with compounds as disclosed herein for a month, administered by single oral injection. Glycemia levels are determined in blood from the Tail Vein, using a rapid glucose analyzer (Accu-Chek Aviva; Roche) 3 times per week, as well as body weight measure. The food and water intake is measured twice a week.
db/db mice were treated for two weeks with a daily dose of the compound of Example 8, (R)-2-acetamido-3-((2′,4′-difluoro-3-(propoxycarbonyl)biphenyl-4-yloxy)carbonylthio) propanoic acid, or with vehicle.

Diflunisal detected in plasma of orally dosed mice [1]	Compound	Release of the NSAID (diflunisal or salicylate) on incubation in the presence of human liver S9 fraction [2]	Fasting glycemia (db/db mice)
detected	COC(=O)c1cc(-c2ccc(F)cc2F)ccc1OC(=O)SCCC(NC(C)=O)C(=O)O (racemic) [Example 5, (+/−)-2-Acetamido-4-((2′,4′-difluoro-3-(methoxycarbonyl)biphenyl-4-yloxy)carbonylthio)butanoic acid]		
	COC(=O)c1ccccc1OC(=O)SC[C@H](NC(C)=O)C(=O)O [Example 2, (R)-2-Acetamido-3-((2-(methoxycarbonyl)phenoxy)carbonylthio)propanoic acid]	no diflunisal or salicylate has been detected	
	CC(=O)N[C@@H](CSC(=O)Oc1ccccc1C(=O)OCc1ccccc1)C(=O)O [Example 4, (R)-2-Acetamido-3-((2-(benzyloxycarbonyl)phenoxy)carbonylthio) propanoic acid]	no diflunisal or salicylate has been detected	
detected	CCCOC(=O)c1cc(-c2ccc(F)cc2F)ccc1OC(=O)SC[C@H](NC(C)=O)C(=O)O [Example 8, (R)-2-Acetamido-3-((2′,4′-difluoro-3-(propoxycarbonyl)biphenyl-4-yloxy)carbonylthio)propanoic acid]		significantly reduced
